From patent US11104926B1, “Pro-fluorophore compounds and use thereof” (Vanderbilt University, priority 2018, dated 2021)
“Also recorded” adds a separate entry of the source.

Legend:
[1] = tested on: porcine liver esterase (PLE); assay: In vitro activation of rhodamine-amide pro-fluorophores by PLE (kinetic fluorescence plate assay); format: biochemical; conditions: for conversion to the fluorescent Rhodamine 110 by PLE (in words): 10 μM, 2 min, 22° C., 30 nM PLE (FIG. 2B); for Km: Table 1, PLE activation; for quality as PLE substrate (in words): in vitro and in cells, comparison within the library
Experimental: To investigate the ability of PLE to activate various rhodamine-amide pro-fluorophores, the compounds were dissolved in DMSO to a concentration of 100 mM and serially diluted in DMSO in 10, 3-fold steps. The compounds were then added to the well of a low volume, cyclic olefin copolymer 384-well plate (Labcyte). Forty nL/well of pro-fluorophore solution were transferred to black-walled, clear-bottom, polystyrene 384-well plates (Greiner) using an Echo plate reformatter (Labcyte). Following compound transfer, […] of phosphate-buffered saline (PBS) was added to each well and thoroughly mixed. PLE (Sigma, 46058) dissolved in PBS at a concentration of 60 nM and 40 μL of this solution was added to the wells of a polypropylene 384-well plate (Greiner). Pro-fluorophore-containing and PLE-containing plates were placed in a Panoptic kinetic imaging plate reader (WaveFront Biosciences). Images were acquired at 1 Hz (excitation 480±20 nm and 540±30 nm) for 30 seconds, then 20 μL/well of the PLE solutions were added to the pro-fluorophore-containing plates and imaging continued for an additional 15 minutes. In addition to the pro-fluorophore-containing plates, a plate containing PBS only was imaged as was a plate containing a concentration series of Rhodamine 110.

[2] = tested on: HEK293 cells stably expressing PLE; assay: Pro-fluorophore activation in PLE-expressing HEK293 cells (kinetic imaging plate reader); format: cell-based; conditions: for rank of fold increase in fluorescence in cells (in words) / Fold Increase in Fluorescence: 10 μM; for rank of fold increase in fluorescence in cells (in words): PLE-expressing vs wild-type HEK293 (Table 2); for Fold Increase in Fluorescence: PLE-expressing HEK293 divided by wild-type HEK293, 5 min after addition, mean (SEM) of 4 replicates
Source text: Cell-based assays. To construct a PLE-expressing HEK293 cell line, a PLE-IRES-mCherry construct was excised from the pCAG-PLE-IRES-mCherry (Addgene plasmid #45766) vector using Not1-HF and Xho1 (Tian et al., Proceedings of the National Academy of Sciences, 2012, 109, 4756-4761). The PLE-IRES-mCherry insert was then cloned into pcDNA3.1/Zeo vector (Thermo Fisher Scientific). The pcDNA3.1/Zeo PLE-IRES-mCherry vector was introduced to HEK293 (ATCC) using FuGENE HD (Promega). PLE-expressing cells were selected for using Zeocin.
(§1) Wild-type HEK293 and PLE-expressing HEK293 cells maintained in α-MEM (Corning) containing 10% vol/vol fetal bovine serum (Thermo-Fisher Scientific) and 1% vol/vol GlutaGro (Corning) (cell culture medium) were seeded with 20,000 cells/well in 20 μL of cell culture medium into amine-coated, clear-bottom, and black-walled 384-well plate (BD Biosciences). Plates were then incubated overnight at 37° C. in a 5% CO2 cell culture incubator. Following overnight incubation, cell culture medium was removed and replaced with 20 μL/well assay buffer. Rhodamine-amide profluorophores dissolved in DMSO at 10 mM were diluted into assay buffer at concentrations ranging from 50 μM-70 nM. Forty μL/well of pro-fluorophore solutions were placed in polypropylene 384-well plates (Greiner). Immediately before the beginning of data acquisition, the assay buffer was removed from the cell-containing plates. The cell-containing and pro-fluorophore containing plates where then immediately loaded into a Panoptic kinetic imaging plate reader. Images were acquired at 1 Hz (excitation 480±20 nm and 540±30 nm) for 30 seconds, then 20 μL/well of the pro-fluorophore solutions were added to the cell-containing plates and imaging continued for an additional 15 minutes.

[3] = tested on: wild-type HEK293 cells; assay: Pro-fluorophore activation in wild-type HEK293 cells (kinetic imaging plate reader); format: cell-based; conditions: 3 μM (FIG. 3A)
Experimental: as §1

[4] = tested on: HEK293 cells expressing PLE; assay: Confocal fluorescence microscopy of PLE-expressing HEK293 cells; format: cell-based; conditions: treated 1 h at 22° C. (FIG. 4 panels a-c)
Experimental: (§2) Microscopy. Confocal images were acquired using a Nikon MR (Nikon Instruments) laser scanning confocal microscope equipped with plan apochromat violet corrected 1.4 numerical aperture (N.A.) oil immersion lens. Hoescht images were obtained using a 405 nm laser and 425-475 nm emission filter. Pro-fluorophore (1c) was imaged using a 488 nm laser and 500-550 nm emission filter. Cells for imaging study were cultured overnight on no. 1 chambered slides (lab-tek II, ThermoFisher) in medium previously described in kinetic imaging assays. Medium was removed and pro-fluorophore was added to the slide chambers in assay buffer containing Hoescht, 1 μg/mL. […]

[5] = tested on: wild-type HEK293 cells; assay: Confocal fluorescence microscopy of wild-type HEK293 cells; format: cell-based; conditions: treated 1 h at 22° C. (FIG. 4 panels d-f)
Experimental: as §2

[6] = listed as N,N′-dipropionyl rhodamine

Compound	conversion to the fluorescent Rhodamine 110 by PLE (in words) [1]	Km [1] [µM]	quality as PLE substrate (in words) [1]	rank of fold increase in fluorescence in cells (in words) [2]	Fold Increase in Fluorescence [2]	other results
O=C1OC2(c3ccc(NC(=O)C(F)(F)F)cc3Oc3cc(NC(=O)C(F)(F)F)ccc32)c2ccccc21 [Compound 1a, N,N′ bis-triflouroacetyl rhodamine]	most effective conversion	2.06	good PLE substrates	largest fold increase in fluorescence	5701 (±26.4)	quality as PLE substrate (in words) ([1]; listed as N,N′-ditrifluoroacetyl): better substrates than the others; rank of fold increase in fluorescence in cells (in words) ([2]; listed as N,N′-ditrifluoroacetyl rhodamine): largest increase in fluorescence
CC(=O)Nc1ccc2c(c1)Oc1cc(NC(C)=O)ccc1C21OC(=O)c2ccccc21 [Compound 1b, N,N′-bis-acetyl rhodamine]			less preferred substrate; also recorded: poor substrate		37 (±0.2)	
CCC(=O)Nc1ccc2c(c1)Oc1cc(NC(=O)CC)ccc1C21OC(=O)c2ccccc21 [Compound 1c, N,N′-bis-propionyl rhodamine]	most effective conversion		good PLE substrates	largest fold increase in fluorescence	725 (±2.1)	quality as PLE substrate (in words) [1, 6]: better substrates than the others; fluorescence upon addition to PLE-expressing HEK293 cells (in words) ([2]; 3 μM, 384-well plate (FIG. 3A)): rapid increase in fluorescence; fluorescence upon addition to wild-type HEK293 cells (in words) [3]: no increase in fluorescence was observed; confocal fluorescence in PLE-expressing HEK293 cells (in words) [4]: bright, predominantly cytoplasmic, fluorescence; confocal fluorescence in PLE-expressing HEK293 cells (in words) [4, 6]: bright, cytoplasmic fluorescence; confocal fluorescence in wild-type HEK293 cells (in words) [5]: no fluorescence was observed
CC(C)C(=O)Nc1ccc2c(c1)Oc1cc(NC(=O)C(C)C)ccc1C21OC(=O)c2ccccc21 [Compound 1d, N,N′-bis-isobutyl rhodamine]					458 (±1.6)	
CC(C)(C)C(=O)Nc1ccc2c(c1)Oc1cc(NC(=O)C(C)(C)C)ccc1C21OC(=O)c2ccccc21 [Compound 1e, N,N′-bis-pivaloyl rhodamine]					87 (±0.4)	
O=C(Nc1ccc2c(c1)Oc1cc(NC(=O)c3ccccc3)ccc1C21OC(=O)c2ccccc21)c1ccccc1 [Compound 1f, N,N′-bis-benzoyl rhodamine]		7.45			119 (±1.2)	
